Measurements as given in US10597388B2, “Pyridazinone herbicides” (FMC CORPORATION, priority 2014, dated 2020).

Tests used:
Assay in all cases: Test D controlled growth environment herbicide test, pre- and postemergence
Assay type in all cases: in vivo
[1] = system: barley, spring (spring barley, Hordeum vulgare)
Excerpt: (§1) Seeds of plant species selected from bluegrass (annual bluegrass, Poa annua), blackgrass (Alopecurus myosuroides), Canada thistle (Cirsium arvense), canarygrass (Phalaris minor), chickweed (common chickweed, Stellaria media), geranium, cutleaf (cutleaf geranium, Geranium dissectum), galium (catchweed bedstraw, Galium aparine), bromegrass, downy (downy bromegrass, Bromus tectorum), field poppy (Papaver rhoeas), field violet (Viola arvensis), foxtail, green (green foxtail, Setaria viridis), deadnettle (henbit deadnettle, Lamium amplexicaule), ryegrass, Italian (Italian ryegrass, Lolium multiflorum), kochia (Kochia scoparia), lambsquarters (Chenopodium album), oilseed rape (Brassica napus), pigweed (Amaranthus retroflexus), chamomile (scentless chamomile, Matricaria inodora), Russian thistle (Salsola kali), speedwell (bird's-eye speedwell, Veronica persica), barley, spring (spring barley, Hordeum vulgare), wheat, spring (spring wheat, Triticum aestivum), buckwheat, wild (wild buckwheat, Polygonum convolvulus), mustard, wild (wild mustard, Sinapis arvensis), oat, wild (wild oat, Avena fatua), radish, wild (wild radish, Raphanus raphanistrum), windgrass (Apera spica-venti), barley, winter (winter barley, Hordeum vulgare), and wheat, winter (winter wheat, Triticum aestivum) were planted into a silt loam soil and treated preemergence with test chemicals formulated in a non-phytotoxic solvent mixture which included a surfactant.
(§2) At the same time, these species were planted in pots containing Redi-Earth® planting medium (Scotts Company, 14111 Scottslawn Road, Marysville, Ohio 43041) comprising spaghnum peat moss, vermiculite, wetting agent and starter nutrients and treated with postemergence applications of the test chemicals formulated in the same manner. Plants ranged in height from 2 to 18 cm (1- to 4-leaf stage). Treated plants and controls were maintained in a controlled growth environment for 14 to 21 d after which time all species were compared to controls and visually evaluated. Plant response ratings, summarized in Table D, are based on a scale of 0 to 100 where 0 is no effect and 100 is complete control. A dash (-) response means no test result.

[2] = system: deadnettle (henbit deadnettle, Lamium amplexicaule)
Excerpt: as §1, §2

[3] = system: bluegrass (annual bluegrass, Poa annua)
Excerpt: as §1, §2

[4] = system: Russian thistle (Salsola kali)
Excerpt: as §1, §2

[5] = system: pigweed (Amaranthus retroflexus)
Excerpt: as §1, §2

[6] = system: windgrass (Apera spica-venti)
Excerpt: as §1, §2

[7] = system: field violet (Viola arvensis)
Excerpt: as §1, §2

[8] = system: foxtail, green (green foxtail, Setaria viridis)
Excerpt: as §1, §2

[9] = system: mustard, wild (wild mustard, Sinapis arvensis)
Excerpt: as §1, §2

[10] = system: oat, wild (wild oat, Avena fatua)
Excerpt: as §1, §2

[11] = system: wheat, spring (spring wheat, Triticum aestivum)
Excerpt: as §1, §2

[12] = system: wheat, winter (winter wheat, Triticum aestivum)
Excerpt: as §1, §2

[13] = system: kochia (Kochia scoparia)
Excerpt: as §1, §2

[14] = Postemergence, 31 g ai/ha, scale 0 to 100 (0 no effect, 100 complete control)
[15] = Postemergence, 125 g ai/ha, visual rating on scale 0 (no effect) to 100 (complete control), 14 to 21 d
[16] = Postemergence, 250 g ai/ha, scale 0 to 100 (0 no effect, 100 complete control)
[17] = Preemergence, 62 g ai/ha, scale 0 to 100 (0 no effect, 100 complete control)
[18] = Preemergence, 125 g ai/ha, scale 0 to 100 (0 no effect, 100 complete control)
[19] = Preemergence, 250 g ai/ha, scale 0 to 100 (0 no effect, 100 complete control)
[20] = postemergence, 62 g ai/ha, scale 0 to 100, 0 no effect, 100 complete control

Compound: C#CCOC(=O)Oc1c(C)nn(C)c(=O)c1-c1c(C)sc2ccc(C)cc12 [Compound 87]
- Barley, Spring plant response rating [1, 14]: 0
- Plant response rating, Barley, Spring [1, 15]: 0
- Plant response rating, Barley, Spring [1, 16]: 5
- Plant response rating (scale of 0 to 100), Barley, Spring ([1]; Preemergence, 31 g ai/ha): 0
- Plant response rating, Barley, Spring [1, 17]: 0
- Plant response rating, Barley, Spring [1, 18]: 0
- Plant response rating, Barley, Spring [1, 19]: 5
- Plant response rating, Barley, Spring [1, 20]: 0
- Deadnettle plant response rating [2, 14]: 10
- Plant response rating, Deadnettle [2, 15]: 35
- Plant response rating, Deadnettle [2, 16]: 60
- Plant response rating (scale of 0 to 100), Deadnettle ([2]; Preemergence, 31 g ai/ha): 25
- Plant response rating (scale of 0 to 100), Deadnettle ([2]; Preemergence, 62 g ai/ha): 35
- Plant response rating, Deadnettle [2, 18]: 65
- Plant response rating, Deadnettle [2, 19]: 70
- Plant response rating, Deadnettle [2, 20]: 15
- Bluegrass plant response rating [3, 14]: 25
- Plant response rating, Bluegrass [3, 15]: 45
- Plant response rating, Bluegrass [3, 16]: 45
- Plant response rating (scale of 0 to 100), Bluegrass ([3]; Preemergence, 31 g ai/ha): 25
- Plant response rating, Bluegrass [3, 17]: 35
- Plant response rating, Bluegrass [3, 18]: 45
- Plant response rating, Bluegrass [3, 19]: 70
- Plant response rating, Bluegrass [3, 20]: 25
- Russian Thistle plant response rating [4, 14]: 60
- Plant response rating, Russian Thistle [4, 15]: 65
- Plant response rating, Russian Thistle [4, 16]: 75
- Plant response rating (scale of 0 to 100), Russian Thistle ([4]; Preemergence, 31 g ai/ha): 5
- Plant response rating (scale of 0 to 100), Russian Thistle ([4]; Preemergence, 62 g ai/ha): 15
- Plant response rating, Russian Thistle [4, 18]: 85
- Plant response rating, Russian Thistle [4, 19]: 100
- Plant response rating, Russian Thistle [4, 20]: 65
- Pigweed plant response rating [5, 14]: 95
- Plant response rating, Pigweed [5, 15]: 100
- Plant response rating, Pigweed [5, 16]: 100
- Plant response rating (scale of 0 to 100), Pigweed ([5]; Preemergence, 31 g ai/ha): 50
- Plant response rating (scale of 0 to 100), Pigweed ([5]; Preemergence, 62 g ai/ha): 100
- Plant response rating, Pigweed [5, 18]: 100
- Plant response rating, Pigweed [5, 19]: 100
- Plant response rating, Pigweed [5, 20]: 100
- Windgrass plant response rating [6, 14]: 80
- Plant response rating, Windgrass [6, 15]: 85
- Plant response rating, Windgrass [6, 16]: 100
- Plant response rating (scale of 0 to 100), Windgrass ([6]; Preemergence, 31 g ai/ha): 80
- Plant response rating (scale of 0 to 100), Windgrass ([6]; Preemergence, 62 g ai/ha): 80
- Plant response rating, Windgrass [6, 18]: 85
- Plant response rating, Windgrass [6, 19]: 100
- Plant response rating, Windgrass [6, 20]: 85
- Field Violet plant response rating [7, 14]: 80
- Plant response rating, Field Violet [7, 15]: 100
- Plant response rating, Field Violet [7, 16]: 100
- Plant response rating (scale of 0 to 100), Field Violet ([7]; Preemergence, 31 g ai/ha): 80
- Plant response rating (scale of 0 to 100), Field Violet ([7]; Preemergence, 62 g ai/ha): 85
- Plant response rating, Field Violet [7, 18]: 95
- Plant response rating, Field Violet [7, 19]: 100
- Plant response rating, Field Violet [7, 20]: 85
- Foxtail, Green plant response rating [8, 14]: 70
- Plant response rating, Foxtail, Green [8, 15]: 80
- Plant response rating, Foxtail, Green [8, 16]: 90
- Plant response rating (scale of 0 to 100), Foxtail, Green ([8]; Preemergence, 31 g ai/ha): 10
- Plant response rating (scale of 0 to 100), Foxtail, Green ([8]; Preemergence, 62 g ai/ha): 55
- Plant response rating, Foxtail, Green [8, 18]: 95
- Plant response rating, Foxtail, Green [8, 19]: 95
- Plant response rating, Foxtail, Green [8, 20]: 75
- Mustard, Wild plant response rating [9, 14]: 10
- Plant response rating, Mustard, Wild [9, 15]: 25
- Plant response rating, Mustard, Wild [9, 16]: 60
- Plant response rating (scale of 0 to 100), Mustard, Wild ([9]; Preemergence, 31 g ai/ha): 0
- Plant response rating (scale of 0 to 100), Mustard, Wild ([9]; Preemergence, 62 g ai/ha): 0
- Plant response rating, Mustard, Wild [9, 18]: 0
- Plant response rating, Mustard, Wild [9, 19]: 25
- Plant response rating, Mustard, Wild [9, 20]: 35
- Oat, Wild plant response rating [10, 14]: 85
- Plant response rating, Oat, Wild [10, 15]: 98
- Plant response rating, Oat, Wild [10, 16]: 100
- Plant response rating (scale of 0 to 100), Oat, Wild ([10]; Preemergence, 31 g ai/ha): 80
- Plant response rating (scale of 0 to 100), Oat, Wild ([10]; Preemergence, 62 g ai/ha): 85
- Plant response rating, Oat, Wild [10, 18]: 90
- Plant response rating, Oat, Wild [10, 19]: 95
- Plant response rating, Oat, Wild [10, 20]: 95
- Wheat, Spring plant response rating [11, 14]: 0
- Plant response rating, Wheat, Spring [11, 15]: 5
- Plant response rating, Wheat, Spring [11, 16]: 10
- Plant response rating (scale of 0 to 100), Wheat, Spring ([11]; Preemergence, 31 g ai/ha): 0
- Plant response rating (scale of 0 to 100), Wheat, Spring ([11]; Preemergence, 62 g ai/ha): 0
- Plant response rating, Wheat, Spring [11, 18]: 15
- Plant response rating, Wheat, Spring [11, 19]: 20
- Plant response rating, Wheat, Spring [11, 20]: 0
- Wheat, Winter plant response rating [12, 14]: 0
- Plant response rating, Wheat, Winter [12, 15]: 0
- Plant response rating, Wheat, Winter [12, 16]: 5
- Plant response rating (scale of 0 to 100), Wheat, Winter ([12]; Preemergence, 31 g ai/ha): 0
- Plant response rating (scale of 0 to 100), Wheat, Winter ([12]; Preemergence, 62 g ai/ha): 0
- Plant response rating, Wheat, Winter [12, 18]: 0
- Plant response rating, Wheat, Winter [12, 19]: 15
- Plant response rating, Wheat, Winter [12, 20]: 0
- Kochia plant response rating [13, 14]: 85
- Plant response rating, Kochia [13, 15]: 90
- Plant response rating, Kochia [13, 16]: 95
- Plant response rating (scale of 0 to 100), Kochia ([13]; Preemergence, 31 g ai/ha): 0
- Plant response rating (scale of 0 to 100), Kochia ([13]; Preemergence, 62 g ai/ha): 55
- Plant response rating, Kochia [13, 18]: 100
- Plant response rating, Kochia [13, 19]: 100
- Plant response rating, Kochia [13, 20]: 90
